Data published in patent US10399940B2, “Substituted pyrrolidines and methods of use” (AbbVie S.à.r.l., priority 2016, dated 2019).
Where two headings read alike, the source gives them in different places.

Target: T1, F508delCFTR (Homo sapiens, UniProt P13569, DEL508-508)
T1 construct: expressed in transfected cells; host or cells: CFBE41o- (human lung derived epithelial cell line), doxycycline-inducible expression
Assay: Cell Surface Expression-Horse Radish Peroxidase (CSE-HRP) assay
Type: cell-based
Conditions: CFBE41o-F508delCFTR-HRP cells; for Maximum % activity (with co-corrector): with co-corrector (2 μM); for Maximum % activity (with co-corrector) / Maximum % activity (without co-corrector): normalized to on-plate positive control, highest concentration 20 μM
Outline: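 Surface F508delCFTR-HRP was read by luminol luminescence after 18–24 h compound exposure at 33 °C, without or with 2 μM co-corrector. Doses were eight 3-fold steps from 20 μM, in doxycycline-induced (0.5 μg/mL, 72 h) CFBE41o- cells. % activity was scaled to the on-plate 2 μM positive control minus DMSO; EC50 came from a variable-slope sigmoid fit.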

[1] = test compound without co-corrector, 18-24 hours at 33° C., read-out: EC50 (without co-corrector)
[2] = with co-corrector (2 μM of 3-[(2R,4R)-4-({[1-(2,2-difluoro-1,3-benzodioxol-5-yl)cyclopropyl]carbonyl}amino)-7-methoxy-3,4-dihydro-2H-chromen-2-yl]benzoic acid), read-out: EC50 (with co-corrector)

T1 sequence (P13569 with tags, fused parts or gaps DEL508-508): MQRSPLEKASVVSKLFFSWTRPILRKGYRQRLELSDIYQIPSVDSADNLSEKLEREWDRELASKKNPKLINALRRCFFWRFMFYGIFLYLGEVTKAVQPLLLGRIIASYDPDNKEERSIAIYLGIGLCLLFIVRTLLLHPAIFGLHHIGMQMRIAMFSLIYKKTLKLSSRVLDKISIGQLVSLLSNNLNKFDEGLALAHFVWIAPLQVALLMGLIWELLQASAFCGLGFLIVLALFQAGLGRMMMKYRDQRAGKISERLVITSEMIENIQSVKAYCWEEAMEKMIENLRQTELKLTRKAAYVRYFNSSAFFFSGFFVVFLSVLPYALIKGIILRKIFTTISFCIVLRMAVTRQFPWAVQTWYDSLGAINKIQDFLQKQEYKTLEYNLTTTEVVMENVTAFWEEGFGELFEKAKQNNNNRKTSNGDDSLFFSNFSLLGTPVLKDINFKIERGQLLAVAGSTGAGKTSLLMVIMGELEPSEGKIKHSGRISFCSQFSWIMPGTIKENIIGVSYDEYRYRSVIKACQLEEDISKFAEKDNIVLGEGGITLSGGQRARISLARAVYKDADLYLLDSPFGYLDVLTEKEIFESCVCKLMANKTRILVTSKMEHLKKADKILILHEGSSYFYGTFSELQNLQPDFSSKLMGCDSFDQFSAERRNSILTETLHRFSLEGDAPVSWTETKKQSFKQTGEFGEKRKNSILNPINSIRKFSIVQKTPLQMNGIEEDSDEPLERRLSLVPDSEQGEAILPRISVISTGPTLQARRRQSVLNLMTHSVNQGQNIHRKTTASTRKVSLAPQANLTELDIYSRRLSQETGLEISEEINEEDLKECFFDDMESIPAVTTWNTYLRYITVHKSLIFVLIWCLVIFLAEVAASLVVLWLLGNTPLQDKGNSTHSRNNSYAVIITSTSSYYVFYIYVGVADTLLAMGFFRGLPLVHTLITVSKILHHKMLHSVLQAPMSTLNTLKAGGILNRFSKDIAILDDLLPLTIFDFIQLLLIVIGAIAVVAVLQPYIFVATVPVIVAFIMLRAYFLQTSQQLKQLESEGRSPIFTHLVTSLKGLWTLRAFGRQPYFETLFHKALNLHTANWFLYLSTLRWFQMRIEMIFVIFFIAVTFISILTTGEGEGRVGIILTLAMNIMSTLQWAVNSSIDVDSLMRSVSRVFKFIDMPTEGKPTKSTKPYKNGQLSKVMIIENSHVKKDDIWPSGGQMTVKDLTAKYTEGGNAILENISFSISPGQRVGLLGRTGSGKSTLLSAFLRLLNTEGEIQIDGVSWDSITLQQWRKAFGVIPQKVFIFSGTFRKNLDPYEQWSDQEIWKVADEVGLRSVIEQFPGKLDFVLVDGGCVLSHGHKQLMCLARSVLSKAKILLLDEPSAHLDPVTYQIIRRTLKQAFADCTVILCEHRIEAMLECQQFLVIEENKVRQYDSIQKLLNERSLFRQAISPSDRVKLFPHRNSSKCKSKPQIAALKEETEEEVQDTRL

| Compound | EC50 [1] | EC50 [2] | Maximum % activity (with co-corrector) | Maximum % activity (without co-corrector) |
| --- | --- | --- | --- | --- |
| COc1ncc(C2CCC2)cc1CO[C@H]1[C@H](C(C)(C)C)[C@@H](C(=O)O)N(S(=O)(=O)c2cccc3ccccc23)[C@H]1c1cccnc1OC(C)C [Example 294, (2S,3R,4S,5S)-3-tert-butyl-4-[(5-cyclobutyl-2-methoxypyridin-3-yl)methoxy]-1-(naphthalene-1-sulfonyl)-5-{2-[(propan-2-yl)oxy]pyridin-3-yl}pyrrolidine-2-carboxylic acid] | > 10000 nM | 1000 to 10000 nM | ++ (≥150 and <350) | + (<100) |
| COc1ncc(C2CCC2)cc1CO[C@H]1[C@H](C(C)(C)C)[C@@H](C(=O)O)N(C(=O)C2CCCCC2)[C@H]1c1ccccc1C1CC1 [Example 182, (2S,3R,4S,5S)-3-tert-butyl-4-[(5-cyclobutyl-2-methoxypyridin-3-yl)methoxy]-1-(cyclohexanecarbonyl)-5-(2-cyclopropylphenyl)pyrrolidine-2-carboxylic acid] | 1000 to 10000 nM | < 1000 nM | +++ (≥350) | +++ (≥200) |
| COc1ncc(C(F)(F)F)cc1CO[C@H]1[C@H](C(C)(C)C)[C@@H](C(=O)O)N(C(=O)[C@@H]2CCOC2)[C@H]1c1ccccc1C(C)C [Example 111, (2S,3R,4S,5S)-3-tert-butyl-4-{[2-methoxy-5-(trifluoromethyl)pyridin-3-yl]methoxy}-1-[(3R)-oxolane-3-carbonyl]-5-[2-(propan-2-yl)phenyl]pyrrolidine-2-carboxylic acid] | 1000 to 10000 nM | 1000 to 10000 nM | +++ (≥350) | ++ (≥100 and <200) |
| COc1ncc(C(F)(F)F)cc1CO[C@H]1[C@H](C(C)(C)C)[C@@H](C(=O)O)N(C(=O)[C@H]2CCOC2)[C@H]1c1ccccc1C(C)C [Example 109, (2S,3R,4S,5S)-3-tert-butyl-4-{[2-methoxy-5-(trifluoromethyl)pyridin-3-yl]methoxy}-1-[(3S)-oxolane-3-carbonyl]-5-[2-(propan-2-yl)phenyl]pyrrolidine-2-carboxylic acid] | 1000 to 10000 nM | 1000 to 10000 nM | ++ (≥150 and <350) | + (<100) |
| COc1ccc(C(F)(F)F)cc1C(O)CO[C@H]1[C@H](C(C)(C)C)[C@@H](C(=O)O)N(C(=O)[C@@H]2CCCCO2)[C@H]1c1ccccc1C (stereo partly drawn) [Example 268, (2S,3R,4S,5S)-3-tert-butyl-4-{2-hydroxy-2-[2-methoxy-5-(trifluoromethyl)phenyl]ethoxy}-5-(2-methylphenyl)-1-[(2S)-oxane-2-carbonyl]pyrrolidine-2-carboxylic acid] | 1000 to 10000 nM | 1000 to 10000 nM | +++ (≥350) | + (<100) |
| COc1ccc(C(F)(F)F)cc1[C@@](O)(CO)CO[C@H]1[C@H](C(C)(C)C)[C@@H](C(=O)O)N(C(=O)[C@@H]2CCCCO2)[C@H]1c1ccccc1C [Example 263, (2S,3R,4S,5S)-3-tert-butyl-4-{(2R)-2,3-dihydroxy-2-[2-methoxy-5-(trifluoromethyl)phenyl]propoxy}-5-(2-methylphenyl)-1-[(2S)-oxane-2-carbonyl]pyrrolidine-2-carboxylic acid] | > 10000 nM | 1000 to 10000 nM | ++ (≥150 and <350) | + (<100) |
| COc1ccc(C(F)(F)F)cc1CO[C@@H]1[C@H](C(C)(C)C)[C@@H](C(=O)O)N(C(=O)OC(C)C)[C@H]1c1cccnc1OC(C)C [Example 94, (2S,3R,4R,5S)-3-tert-butyl-4-{[2-methoxy-5-(trifluoromethyl)phenyl]methoxy}-1-{[(propan-2-yl)oxy]carbonyl}-5-{2-[(propan-2-yl)oxy]pyridin-3-yl}pyrrolidine-2-carboxylic acid] | > 10000 nM | < 1000 nM | + (<150) | + (<100) |
| COc1ncc(C(F)(F)F)cc1CO[C@H]1[C@H](C(C)(C)C)[C@@H](C(=O)O)N(C(=O)OC(C)C)[C@H]1c1ccccc1C [Example 83, (2S,3R,4S,5S)-3-tert-butyl-4-{[2-methoxy-5-(trifluoromethyl)pyridin-3-yl]methoxy}-5-(2-methylphenyl)-1-{[(propan-2-yl)oxy]carbonyl}pyrrolidine-2-carboxylic acid] | 1000 to 10000 nM | < 1000 nM | +++ (≥350) | ++ (≥100 and <200) |
| COc1ncc(C(F)(F)F)cc1CO[C@H]1[C@H](C(C)(C)C)[C@@H](C(=O)O)N(C(=O)OC(C)C)[C@H]1c1cccnc1OC(C)C [Example 147, (2S,3R,4S,5S)-3-tert-butyl-4-{[2-methoxy-5-(trifluoromethyl)pyridin-3-yl]methoxy}-1-{[(propan-2-yl)oxy]carbonyl}-5-{2-[(propan-2-yl)oxy]pyridin-3-yl}pyrrolidine-2-carboxylic acid] | 1000 to 10000 nM | < 1000 nM | +++ (≥350) | ++ (≥100 and <200) |
| COc1ncc(C(F)(F)F)cc1CO[C@H]1[C@H](C(C)(C)C)[C@@H](C(=O)O)N(C(=O)[C@H]2CCCO2)[C@H]1c1ccccc1C(C)C [Example 102, (2S,3R,4S,5S)-3-tert-butyl-4-{[2-methoxy-5-(trifluoromethyl)pyridin-3-yl]methoxy}-1-[(2R)-oxolane-2-carbonyl]-5-[2-(propan-2-yl)phenyl]pyrrolidine-2-carboxylic acid] | 1000 to 10000 nM | 1000 to 10000 nM | ++ (≥150 and <350) | + (<100) |
| COc1nc2c(C)ccc(C)c2cc1CO[C@H]1[C@H](C(C)(C)C)[C@@H](C(=O)O)N(C(=O)C2CCCCC2)[C@H]1c1cccnc1OC(C)C [Example 248, (2S,3R,4S,5S)-3-tert-butyl-1-(cyclohexanecarbonyl)-4-[(2-methoxy-5,8-dimethylquinolin-3-yl)methoxy]-5-{2-[(propan-2-yl)oxy]pyridin-3-yl}pyrrolidine-2-carboxylic acid] | 1000 to 10000 nM | 1000 to 10000 nM | +++ (≥350) | +++ (≥200) |

Second part, the molecule after the results:

| EC50 [1] | EC50 [2] | Maximum % activity (with co-corrector) | Maximum % activity (without co-corrector) | Compound |
| --- | --- | --- | --- | --- |
| < 1000 nM | < 1000 nM | +++ (≥350) | +++ (≥200) | COc1ncc(C(F)(F)F)cc1CO[C@H]1[C@H](C(C)(C)C)[C@@H](C(=O)O)N(C(=O)[C@@H]2CCCCO2)[C@H]1c1ccccc1C(C)C [Example 96, (2S,3R,4S,5S)-3-tert-butyl-4-{[2-methoxy-5-(trifluoromethyl)pyridin-3-yl]methoxy}-1-[(2S)-oxane-2-carbonyl]-5-[2-(propan-2-yl)phenyl]pyrrolidine-2-carboxylic acid] |
| 1000 to 10000 nM | 1000 to 10000 nM | ++ (≥150 and <350) | + (<100) | COc1ncc(N2CCCC2)cc1CO[C@H]1[C@H](C(C)(C)C)[C@@H](C(=O)O)N(C(=O)C2CCCCC2)[C@H]1c1ccccc1F [Example 59, (2S,3R,4S,5S)-3-tert-butyl-1-(cyclohexanecarbonyl)-5-(2-fluorophenyl)-4-{[2-methoxy-5-(pyrrolidin-1-yl)pyridin-3-yl]methoxy}pyrrolidine-2-carboxylic acid] |
| < 1000 nM | < 1000 nM | +++ (≥350) | +++ (≥200) | COc1ncc(C2CCC2)cc1CO[C@H]1[C@H](C(C)(C)C)[C@@H](C(=O)O)N(C(=O)[C@@H]2CCCCO2)[C@H]1c1cccc2c1CCCC2 [Example 218, (2S,3R,4S,5S)-3-tert-butyl-4-[(5-cyclobutyl-2-methoxypyridin-3-yl)methoxy]-1-[(2S)-oxane-2-carbonyl]-5-(5,6,7,8-tetrahydronaphthalen-1-yl)pyrrolidine-2-carboxylic acid] |
| 1000 to 10000 nM | < 1000 nM | +++ (≥350) | ++ (≥100 and <200) | COc1nc2cc(C)ccc2cc1CO[C@H]1[C@H](C(C)(C)C)[C@@H](C(=O)O)N(C(=O)[C@@H]2CCCCO2)[C@H]1c1ccccc1C [Example 220, (2S,3R,4S,5S)-3-tert-butyl-4-[(2-methoxy-7-methylquinolin-3-yl)methoxy]-5-(2-methylphenyl)-1-[(2S)-oxane-2-carbonyl]pyrrolidine-2-carboxylic acid] |
| 1000 to 10000 nM | 1000 to 10000 nM | +++ (≥350) | ++ (≥100 and <200) | COc1cc(C(F)(F)F)ccc1CO[C@H]1[C@H](C(C)(C)C)[C@@H](C(=O)O)N(C(=O)[C@@H]2CCC[C@@H](OC)C2)[C@H]1c1ccccc1 [Example 33, (2S,3R,4S,5S)-3-tert-butyl-1-[(1R,3R)-3-methoxycyclohexane-1-carbonyl]-4-{[2-methoxy-4-(trifluoromethyl)phenyl]methoxy}-5-phenylpyrrolidine-2-carboxylic acid] |
| < 1000 nM | < 1000 nM | +++ (≥350) | ++ (≥100 and <200) | COc1ncc(C(C)(C)C)cc1CO[C@H]1[C@H](C(C)(C)C)[C@@H](C(=O)O)N(C(=O)C2CCCCC2)[C@H]1c1ccccc1F [Example 62, (2S,3R,4S,5S)-3-tert-butyl-4-[(5-tert-butyl-2-methoxypyridin-3-yl)methoxy]-1-(cyclohexanecarbonyl)-5-(2-fluorophenyl)pyrrolidine-2-carboxylic acid] |
